Assay results taken from article PMC12329525, “All-stage targeted therapy for invasive cryptococcosis through interaction between the secretory protein Cig1 and hemin” (Asian Journal of Pharmaceutical Sciences, 2025).

How the values were obtained:
[1] = target: T1, BSA (Bos taurus, UniProt P02769); assay: UV-vis absorption spectra (Soret shift of complex); assay type: binding; settings: PBS, 37 °C, 15 min; hemin in excess over BSA
T1 construct: gene ALB

[2] = target: T2, Cig1 (Cryptococcus neoformans, UniProt J9VUB8); settings: PBS, 25 °C; hemin from DMSO stock
T2 construct: gene CNAG_01653
T2 sequence (J9VUB8 entry or part of it): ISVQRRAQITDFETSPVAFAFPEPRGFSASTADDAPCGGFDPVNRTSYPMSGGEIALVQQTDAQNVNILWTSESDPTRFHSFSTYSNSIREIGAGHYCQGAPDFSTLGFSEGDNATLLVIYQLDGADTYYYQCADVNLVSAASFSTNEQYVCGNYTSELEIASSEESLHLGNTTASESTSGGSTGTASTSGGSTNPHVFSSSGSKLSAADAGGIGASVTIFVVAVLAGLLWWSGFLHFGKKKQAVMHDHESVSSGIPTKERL

T1 sequence (P02769 25-607): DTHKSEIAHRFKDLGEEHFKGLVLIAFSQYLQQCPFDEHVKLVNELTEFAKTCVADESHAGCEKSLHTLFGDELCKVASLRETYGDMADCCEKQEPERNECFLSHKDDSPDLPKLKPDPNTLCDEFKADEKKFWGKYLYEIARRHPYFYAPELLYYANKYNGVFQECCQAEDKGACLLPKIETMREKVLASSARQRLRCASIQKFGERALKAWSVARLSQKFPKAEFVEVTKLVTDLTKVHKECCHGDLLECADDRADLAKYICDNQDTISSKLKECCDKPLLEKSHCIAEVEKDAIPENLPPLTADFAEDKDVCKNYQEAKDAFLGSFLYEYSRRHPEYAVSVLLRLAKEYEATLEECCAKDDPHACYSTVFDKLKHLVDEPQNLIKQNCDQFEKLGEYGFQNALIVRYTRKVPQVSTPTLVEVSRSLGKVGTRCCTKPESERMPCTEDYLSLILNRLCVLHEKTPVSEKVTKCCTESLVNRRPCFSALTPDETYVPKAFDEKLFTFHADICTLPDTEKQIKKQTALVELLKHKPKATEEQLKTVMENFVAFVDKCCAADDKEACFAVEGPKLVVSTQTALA

In the case of `C=CC1=C(C)C2=Cc3c(C=C)c(C)c4[n]3[Fe]([Cl])[n]3c(c(C)c(CCC(=O)O)c3=CC3=NC(=C4)C(C)=C3CCC(=O)O)=CC1=N2` [hemin], the “UV-vis absorption spectra (Soret shift of complex)” value [1] was “Hemin@BSA exhibited a red shift in its absorption peak” and the Kd [2] was 9.81×10^‒7 mol/l.
